As usually defined, the EC50 is the concentration at which the effect is half-maximal. A lower EC50 goes with an effect from little substance.

The subject of the assay is Hepatitis C replicon. Description: HCV replicon assay (NPT ELISA readout) in Huh-7 replicon-containing cells. The assay is classed as cell-based, Hepatitis C virus. To be noted: Hepatitis C virus, 72 h; HCV replicon in Huh-7 cells, three days incubation. How it is done:
Compounds claimed herein are tested for the ability to inhibit viral replication of the Hepatitis C replicon in cultured cells in which the HCV replicon construct has been incorporated. The HCV replicon system was described by Bartenschlager, et. al (Science, 285, pp. 110-113 (1999)). The replicon system is predictive of in vivo anti-HCV activity; compounds that are active in humans uniformly evidence activity in the replicon assay.
In this assay HCV replicon containing cells are treated with different concentrations of the test compound to ascertain the ability of the test compound to suppress replication of the HCV replicon. As a positive control, HCV replicon-containing cells are treated with different concentrations of interferon alpha, a known inhibitor of HCV replication. The replicon assay system includes Neomycin Phosphotransferase (NPT) as a component of the replicon itself in order to detect the transcription of replicon gene products in the host cell. Cells in which the HCV replicon is actively replicating have high levels of NPT; the level of NPT is proportional to HCV replication. […] The NPT level of each sample is measured using a captured ELISA.
A protocol for testing compounds for the ability to inhibit viral replication of the Hepatitis C replicon cultured cells in which the replicon construct has been incorporated, follows.
The HCV replicon contains, 5′-3′, the HCV-IRES, the neomycin phosphotransferase (neo) gene, the IRES of encephalomyocarditis virus, which directs translation of HCV sequences NS3 to NS5B, and the 3′-NTR. The sequence of the HCV replicon has been deposited in GenBank (Accession no. AJ242652).
The replicon is transfected into Huh-7 cells using standard methods such as electroporation.
The equipment and materials include, but are not limited to, Huh-7 HCV replicon-containing cells, maintenance media (DMEM (Dulbecco's modified Eagle media) supplemented with 10% FBS, L-glutamine, non-essential amino acids, penicillin (100 units/ml), streptomycin (100 micrograms/ml), and 500 micrograms/ml of Geneticin (G418), screening media (DMEM supplemented with 10% FBS, L-glutamine, non-essential amino acids, penicillin (100 units/ml) and streptomycin (100 micrograms/ml)), 96 well tissue culture plates (flat bottom), 96 well plates (U bottom for drug dilution), Interferon alpha for positive control, fixation reagent (such as methanol:acetone), primary antibody (rabbit anti-NPTII), secondary antibody: Eu-N1 l, and enhancement solution.
The cells are then seeded onto 96-well plates at a density of 6000-7500 cells/100 microliters/well (6-7.5×10^5 cells/10 ml/plate). The plates are then incubated at 37° C. in a 5% CO2 incubator.
HCV replicon-containing cells are rinsed with once PBS once; 2 mls of trypsin are then added. Cells are incubated at 37° C. in a 5% CO2 incubator for 3-5 minutes. 10 mls of complete medium is added to stop the reaction. Cells are blown gently, put into a 15 ml tube, and spun at 1200 rpm for four minutes. The trypsin/medium solution is removed and 5 mls of medium (500 ml DMEM (high glucose)) from BRL catalog #12430-054; 50 mls 10% FBS, 5% Geneticin G418 (50 mg/ml, BRL catalog #10131-035), 5 ml MEM non-essential amino acids (100×BRL #11140-050) and 5 ml pen-strep (BRL #15140-148) is added. The cells and media are mixed carefully
Cells are plated with screening medium (500 ml DMEM (BRL #21063-029), 50 ml FBS (BRL #10082-147) and 5 ml MEM non-essential amino acid (BRL #11140-050) at 6000-7500 fcells/100 μl/well of 96 well plate (6-7.5×10^5 cells/10 ml/plate). Plates are placed into 37° C. 5% CO2 incubator overnight.
The following morning, drugs (test compounds or interferon alpha) are diluted in 96 well U bottom plates with media or DMSO/media, depending on the final concentration chosen for screening. Generally for 6 concentrations of each test compounds ranging from 10 micromolar to 0.03 micromolar are applied. […]
On the technique in general: In antiviral work, replicon cells carry a viral genome segment that copies itself.
As for `COc1ccc2c(O[C@@H]3C[C@H]4C(=O)N[C@]5(C(=O)NS(=O)(=O)C6CC6)C[C@H]5/C=C\CCCCC[C@H](CC(=O)N5CC6CC5CO6)C(=O)N4C3)cc(-c3ccccc3)nc2c1` (stereo partly drawn) [Compound 77, (2R,6R,13aS,14aR, 16aS,Z)-6-(2-(2-oxa-5-azabicyclo[2.2.1]heptan-5-yl)-2-oxoethyl)-N-(cyclopropylsulfonyl)-2-(7-methoxy-2-phenylquinolin-4-yloxy)-5,16-dioxo-1,2,3,5,6,7,8,9,10,11, 13a,14,14a,15,16,16a-hexadecahydrocyclopropa [e]pyrrolo[1,2-a][1,4] diazacyclopentadecine-14a-carboxamide], the EC50 was less than 1000 nM.

`COc1ccc2c(O[C@@H]3C[C@H]4C(=O)N[C@]5(C(=O)NS(=O)(=O)C6CC6)C[C@H]5/C=C\CCCCC[C@H](CC(=O)N5CCCCC5)C(=O)N4C3)cc(-c3ccccn3)nc2c1C` [Compound 116, (2R,6R,14aR,16aS,Z)-N-(cyclopropylsulfonyl)-2-(7-methoxy-8-methyl-2-(pyridin-2-yl)quinolin-4-yloxy)-5, 16-dioxo-6-(2-oxo-2-(piperidin-1-yl)ethyl)-1,2,3,5,6,7,8,9,10,11, 13a,14,14a,15,16,16a-hexadecahydrocyclopropa [e]pyrrolo[1,2-a][1,4] diazacyclopentadecine-14a-carboxamide] yielded an EC50 of less than 1000 nM.

As to `COc1ccc2c(O[C@@H]3C[C@H]4C(=O)N[C@]5(C(=O)NS(=O)(=O)C6CC6)C[C@H]5/C=C\CCCCC[C@H](CC(=O)N5[C@H](C)CCC[C@@H]5C)C(=O)N4C3)cc(-c3ccccc3)nc2c1` [Compound 99, (2R,6R,14aR,16aS,Z)-N-(cyclopropylsulfonyl)-6-(2-((2R,6S)-2,6-dimethylpiperidin-1-yl)-2-oxoethyl)-2-(7-methoxy-2-phenylquinolin-4-yloxy)-5,16-dioxo-1,2,3,5,6,7,8,9,10,11, 13a,14,14a,15,16,16a-hexadecahydrocyclopropa [e]pyrrolo[1,2-a][1,4] diazacyclopentadecine-14a-carboxamide], the EC50 was less than 1000 nM. The value for `COc1ccc2c(O[C@@H]3C[C@H]4C(=O)N[C@]5(C(=O)NS(=O)(=O)C6CC6)C[C@H]5/C=C\CCCCC[C@H](CC(=O)N5CCC(F)CC5)C(=O)N4C3)cc(-c3ccccn3)nc2c1Cl` [Compound 101, (2R,6R,14aR,16aS,Z)-2-(8-chloro-7-methoxy-2-(pyridin-2-yl)quinolin-4-yloxy)-N-(cyclopropylsulfonyl)-6-(2-(4-fluoropiperidin-1-yl)-2-oxoethyl)-5,16-dioxo-1,2,3,5,6,7,8,9,10,11, 13a,14,14a,15,16,16a-hexadecahydrocyclopropa [e]pyrrolo[1,2-a][1,4] diazacyclopentadecine-14a-carboxamide] was less than 1000 nM. The same measure for `COc1ccc2c(O[C@@H]3C[C@H]4C(=O)N[C@]5(C(=O)NS(=O)(=O)C6CC6)C[C@H]5/C=C\CCCCC[C@H](CC(=O)N5CCC(C(F)(F)F)CC5)C(=O)N4C3)cc(-c3ccccn3)nc2c1C` [Compound 117, (2R,6R,14aR,16aS,Z)-N-(cyclopropylsulfonyl)-2-(7-methoxy-8-methyl-2-(pyridin-2-yl)quinolin-4-yloxy)-5, 16-dioxo-6-(2-oxo-2-(4-(trifluoromethyl)piperidin-1-yl)ethyl)-1,2,3,5,6,7,8,9,10,11, 13a,14,14a,15,16,16a-hexadecahydrocyclopropa [e]pyrrolo[1,2-a][1,4] diazacyclopentadecine-14a-carboxamide]: more than 10000 nM; for `COc1ccc2c(O[C@@H]3C[C@H]4C(=O)N[C@]5(C(=O)NS(=O)(=O)C6CC6)CC5/C=C\CCCCC[C@H](CC(=O)N5CC[C@@H](CNC(=O)OC(C)(C)C)C5)C(=O)N4C3)cc(-c3ccccc3)nc2c1` (stereo partly drawn) [Compound 103, tert-butyl ((3S)-1-(2-((2R,6R,14aR,16aS,Z)-14a-(cyclopropylsulfonyl-carbamoyl)-2-(7-methoxy-2-phenylquinolin-4-yloxy)-5,16-dioxo-1,2,3,5,6,7,8,9,10,11, 13a,14,14a,15,16,16a-hexadecahydrocyclopropa [e]pyrrolo[1,2-a][1,4]diazacyclopentadecin-6-yl)acetyl)pyrrolidin-3-yl)methylcarbamate]: less than 1000 nM; for `COc1ccc2c(O[C@@H]3C[C@H]4C(=O)N[C@]5(C(=O)NS(=O)(=O)C6CC6)C[C@H]5/C=C\CCCCC[C@H](CC(=O)N5CCCC(C)C5)C(=O)N4C3)cc(-c3ccccc3)nc2c1` (stereo partly drawn) [Compound 78, (2R,6R,13aS, 14aR,16aS,Z)-N-(cyclopropylsulfonyl)-2-(7-methoxy-2-phenylquinolin-4-yloxy)-6-(2-(3-methylpiperidin-1-yl)-2-oxoethyl)-5,16-dioxo-1,2,3,5,6,7,8,9,10,11, 13a,14,14a,15,16,16a-hexadecahydrocyclopropa [e]pyrrolo[1,2-a][1,4] diazacyclopentadecine-14a-carboxamide]: less than 1000 nM. `COc1ccc2c(O[C@@H]3C[C@H]4C(=O)N[C@]5(C(=O)NS(=O)(=O)C6CC6)C[C@H]5/C=C\CCCCC[C@H](CC(=O)N5CCC(C(F)(F)F)CC5)C(=O)N4C3)nc(-c3ccccn3)cc2c1Cl` [Compound 132, (2R,6R,14aR,16aS,Z)-2-(5-chloro-6-methoxy-3-(pyridin-2-yl)isoquinolin-1-yloxy)-N-(cyclopropylsulfonyl)-5,16-dioxo-6-(2-oxo-2-(4-(trifluoromethyl)piperidin-1-yl)ethyl)-1,2,3,5,6,7,8,9,10,11, 13a,14,14a,15,16,16a-hexadecahydrocyclopropa [e]pyrrolo[1,2-a][1,4] diazacyclopentadecine-14a-carboxamide] displayed a 50% effective concentration (EC50) of less than 1000 nM. The same measure for `COc1ccc2nc(-c3ccccn3)cc(C(=O)N[C@@H]3C[C@H]4C(=O)N[C@]5(C(=O)NS(=O)(=O)C6CC6)C[C@H]5/C=C\CCCCC[C@H](CC(=O)N5CCC(F)(F)CC5)C(=O)N4C3)c2c1` [Compound 97, (2R,6R,14aR,16aS,Z)-N-(cyclopropylsulfonyl)-6-(2-(4,4-difluoropiperidin-1-yl)-2-oxoethyl)-2-(6-methoxy-2-(pyridin-2-yl)quinoline-4-carboxamido)-5,16-dioxo-1,2,3,5,6,7,8,9,10,11, 13a,14,14a,15,16,16a-hexadecahydrocyclopropa [e]pyrrolo[1,2-a][1,4] diazacyclopentadecine-14a-carboxamide]: less than 1000 nM; for `COc1ccc2nc(-c3ccccn3)cc(C(=O)N[C@@H]3C[C@H]4C(=O)N[C@]5(C(=O)NS(=O)(=O)C6CC6)C[C@H]5/C=C\CCCCC[C@H](CC(=O)N5CCCCC5)C(=O)N4C3)c2c1` [Compound 96, (2R,6R,14aR,16aS,Z)-N-(cyclopropylsulfonyl)-2-(6-methoxy-2-(pyridin-2-yl)quinoline-4-carboxamido)-5,16-dioxo-6-(2-oxo-2-(piperidin-1-yl)ethyl)-1,2,3,5,6,7,8,9,10,11, 13a,14,14a,15,16,16a-hexadecahydrocyclopropa [e]pyrrolo[1,2-a][1,4] diazacyclopentadecine-14a-carboxamide]: less than 1000 nM; for `COc1ccc2c(O[C@@H]3C[C@H]4C(=O)N[C@]5(C(=O)NS(=O)(=O)C6CC6)C[C@H]5/C=C\CCCCC[C@H](CC(=O)N5CCCC(F)(F)C5)C(=O)N4C3)cc(-c3ccccn3)nc2c1Cl` [Compound 91, (2R,6R,14aR,16aS,Z)-2-(8-chloro-7-methoxy-2-(pyridin-2-yl)quinolin-4-yloxy)-N-(cyclopropylsulfonyl)-6-(2-(3,3-difluoropiperidin-1-yl)-2-oxoethyl)-5,16-dioxo-1,2,3,5,6,7,8,9,10,11, 13a,14,14a,15,16,16a-hexadecahydrocyclopropa [e]pyrrolo[1,2-a][1,4] diazacyclopentadecine-14a-carboxamide]: less than 1000 nM.
